Laboratory results reported in US20220380319A1 (Bial - R&D Investments, S.A., priority 2019, published 2022).
pIC50: −log10 of the molar value. Converted amounts (≈) assume the structure as drawn.

What was measured:
[1] = Compound solubility in water
acid ceramidase = target: T1, acid ceramidase (Homo sapiens, UniProt Q13510); experiment: Acid ceramidase inhibition, biochemical fluorescent assay with cell lysates overexpressing acid ceramidase, substrate Rbm14-12; conditions: substrate Rbm14-12 6.3 μM
T1 construct: Cell lysates overexpressing acid ceramidase were used as the enzyme source; expressed in transfected cells
T1 sequence (Q13510 22-395): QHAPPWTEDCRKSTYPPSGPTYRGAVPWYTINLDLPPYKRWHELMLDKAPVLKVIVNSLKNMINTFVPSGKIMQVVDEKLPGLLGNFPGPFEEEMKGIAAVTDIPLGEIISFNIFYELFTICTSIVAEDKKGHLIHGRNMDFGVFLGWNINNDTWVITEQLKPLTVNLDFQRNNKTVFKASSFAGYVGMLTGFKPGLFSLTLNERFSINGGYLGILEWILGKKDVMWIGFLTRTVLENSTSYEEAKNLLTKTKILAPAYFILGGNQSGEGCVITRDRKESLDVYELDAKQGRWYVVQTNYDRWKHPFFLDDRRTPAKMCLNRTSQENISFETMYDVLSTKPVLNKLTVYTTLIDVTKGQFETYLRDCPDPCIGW
Procedure, shortened: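 IC50 derived by four-parameter fitting of fluorescence (ex360 nm, em446 nm) produced after 1 hr in methanol/NaIO4/glycine stop buffer, pH 10.6. Reaction: 6.3 μM Rbm14-12, 1 hr RT, following 1 hr RT compound preincubation with 10 μg overexpressing-cell lysate protein in pH 4.5 NaAC/NaCl buffer.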

[2] = pH 4.5, 1 hr preincubation at RT

| Structure (SMILES) | solubility [1] [µg/mL] | pIC50 (acid ceramidase; [2]) | pIC50 (acid ceramidase; pH 4.5) |
| --- | --- | --- | --- |
| Cn1c(=O)n(C(=O)NCCc2ccccc2)c2cccnc21 [Example 87, 3-Methyl-2-oxo-N-phenethyl-2,3-dihydro-1H-imidazo[4,5-b]pyridine-1-carboxamide] | 14.7 (≈ 49.6 µM) | < 6.00 |  |
| COc1cccc(C#CCNC(=O)n2cnc3c(N4CCN(C)CC4)cccc32)c1 [Example 340, N-(3-(3-Methoxyphenyl)prop-2-yn-1-yl)-4-(4-methylpiperazin-1-yl)-1H-benzo[d]imidazole-1-carboxamide] | 13 (≈ 32.2 µM) | > 6.70 |  |
| O=C(NCCOc1ccc(F)cc1)n1cnc2ccccc21 [Example 47, N-(2-(4-Fluorophenoxy)ethyl)-1H-benzo[d]imidazole-1-carboxamide] | 4.3 (≈ 14.4 µM) | > 6.70 |  |
| COc1nc2cc(N3CCN(C)CC3)ccc2n1C(=O)NCCCc1ccccc1 [Example 194, 2-Methoxy-5-(4-methylpiperazin-1-yl)-N-(3-phenylpropyl)-1H-benzo[d]imidazole-1-carboxamide] | 30 (≈ 73.6 µM) |  | 6.00 to 6.70 |
| CN1CC(N2CCN(c3cccc4c3ncn4C(=O)NCCOc3ccccc3)CC2)C1 [Example 296, 4-(4-(1-Methylazetidin-3-yl)piperazin-1-yl)-N-(2-phenoxyethyl)-1H-benzo[d]imidazole-1-carboxamide] | 36 (≈ 82.8 µM) |  | > 6.70 |
| CCCCNC(=O)n1c(=O)n(C)c2nc(-c3cncnc3)ccc21 [Example 84, N-Butyl-3-methyl-2-oxo-5-(pyrimidin-5-yl)-2,3-dihydro-1H-imidazo[4,5-b]pyridine-1-carboxamide] | 0.9 (≈ 2.76 µM) | 6.00 to 6.70 |  |
| O=C(NCCc1ccccc1)n1cnc2cc(N3CCCCC3)ccc21 [Example 13a, N-Phenethyl-5-(piperidin-1-yl)-1H-benzo[d]imidazole-1-carboxamide] | 2.6 (≈ 7.46 µM) | > 6.70 |  |
| CC(=O)N1CCN(c2cccc3c2ncn3C(=O)NCCCc2ccccc2)CC1 [Example 218, 4-(4-Acetylpiperazin-1-yl)-N-(3-phenylpropyl)-1H-benzo[d]imidazole-1-carboxamide] | 24 (≈ 59.2 µM) |  | > 6.70 |
| COc1nc2c(N3CC(N4CCN(C)CC4)C3)cccc2n1C(=O)NCCOc1ccccc1 [Example 329, 2-Methoxy-4-(3-(4-methylpiperazin-1-yl)azetidin-1-yl)-N-(2-phenoxyethyl)-1H-benzo[d]imidazole-1-carboxamide] | 38 (≈ 81.8 µM) |  | < 6.00 |
| CCOc1nc2c(F)cccc2n1C(=O)NCCc1ccccc1 [Example 92, 2-Ethoxy-4-fluoro-N-phenethyl-1H-benzo[d]imidazole-1-carboxamide] | 1.2 (≈ 3.67 µM) | > 6.70 |  |
| COc1nc2c(N3CCN(C)CC3)cccc2n1C(=O)NCC#Cc1ccccc1 [Example 322, 2-Methoxy-4-(4-methylpiperazin-1-yl)-N-(3-phenylprop-2-yn-1-yl)-1H-benzo[d]imidazole-1-carboxamide] | 22 (≈ 54.5 µM) |  | 6.00 to 6.70 |
| O=C(NCCc1ccccc1)n1cnc2ccccc21 [Example 1, N-Phenethyl-1H-benzo[d]imidazole-1-carboxamide] | 8 (≈ 30.2 µM) | > 6.70 |  |
| CC(C)CCNC(=O)n1cnc2c(N3CCN(C)CC3)cc(C#N)cc21 [Example 180, 6-Cyano-N-iso-pentyl-4-(4-methylpiperazin-1-yl)-1H-benzo[d]imidazole-1-carboxamide] | 23 (≈ 64.9 µM) |  | > 6.70 |
| CN1CCN(c2cccc3c2ncn3C(=O)NCCCC(F)(F)F)CC1 [Example 255, 4-(4-Methylpiperazin-1-yl)-N-(4,4,4-trifluorobutyl)-1H-benzo[d]imidazole-1-carboxamide] | 35 (≈ 94.8 µM) |  | 6.00 to 6.70 |
| CC(C)CCNC(=O)n1cnc2c(N3CCCCC3)cccc21 [Example 151, N-iso-Pentyl-4-(piperidin-1-yl)-1H-benzo[d]imidazole-1-carboxamide] | 2 (≈ 6.36 µM) | 6.00 to 6.70 |  |
| CN1CC2(CCN(c3cccc4c3ncn4C(=O)NCCC#Cc3ccccc3)CC2)C1 [Example 367, 4-(2-Methyl-2,7-diazaspiro[3.5]nonan-7-yl)-N-(4-phenylbut-3-yn-1-yl)-1H-benzo[d]imidazole-1-carboxamide] | 27 (≈ 63.2 µM) | > 6.70 |  |
| CC(C)CNC(=O)n1c(=O)n(C)c2ccc(-c3cccnc3)cc21 [Example 123, N-iso-Butyl-3-methyl-2-oxo-6-(pyridin-3-yl)-2,3-dihydro-1H-benzo[d]imidazole-1-carboxamide] | 0.6 (≈ 1.85 µM) | < 6.00 |  |
| COc1cccc2c1ncn2C(=O)NCCc1ccccc1 [Example 27, 4-Methoxy-N-phenethyl-1H-benzo[d]imidazole-1-carboxamide] | 7.8 (≈ 26.4 µM) | > 6.70 |  |
| O=C(NCCCc1ccccc1)n1cnc2c(N3CCC4(CC3)COC4)cccc21 [Example 216, N-(3-Phenylpropyl)-4-(2-oxa-7-azaspiro[3.5]nonan-7-yl)-1H-benzo[d]imidazole-1-carboxamide] | 2.5 (≈ 6.18 µM) |  | > 6.70 |
| O=C(NCCCc1ccccc1)n1cnc2c(N3CCC3)cccc21 [Example 279, 4-(Azetidin-1-yl)-N-(3-phenylpropyl)-1H-benzo[d]-imidazole-1-carboxamide] | 1 (≈ 2.99 µM) |  | > 6.70 |
| O=C(NCCc1ccccc1)n1cnc2cc(-c3cccnc3)ccc21 [Example 10a, N-Phenethyl-5-(pyridin-3-yl)-1H-benzo[d]imidazole-1-carboxamide] | 1.2 (≈ 3.5 µM) | > 6.70 |  |
| CN1CCN(C2CN(c3cccc4c3ncn4C(=O)NCC#CC(C)(C)C)C2)CC1 [Example 360, N-(4,4-Dimethylpent-2-yn-1-yl)-4-(3-(4-methylpiperazin-1-yl)azetidin-1-yl)-1H benzo[d]imidazole-1-carboxamide] | 27 (≈ 66.1 µM) | > 6.70 |  |
| O=C(NCCc1ccccc1)n1cnc2ccncc21 [Example 21, N-Phenethyl-3H-imidazo[4,5-c]pyridine-3-carboxamide] | 4.3 (≈ 16.1 µM) | > 6.70 |  |
| CN(C)CCOc1nc2ccccc2n1C(=O)NCCc1ccccc1 [Example 89, 2-(2-(Dimethylamino)ethoxy)-N-phenethyl-1H-benzo[d]imidazole-1-carboxamide] | 27.6 (≈ 78.3 µM) | > 6.70 |  |
| CN1CCN(c2cccc3c2ncn3C(=O)NCC2Oc3ccccc3O2)CC1 [Example 345, N-(Benzo[d][1,3]dioxol-2-ylmethyl)-4-(4-methylpiperazin-1-yl)-1H-benzo[d]imidazole-1-carboxamide] | 40 (≈ 102 µM) | > 6.70 |  |
| CC(C)CCNC(=O)n1cnc2c(N3CCN(CCC#N)CC3)cccc21 [Example 200, 4-(4-(2-Cyanoethyl)piperazin-1-yl)-N-iso-pentyl-1H-benzo[d]imidazole-1-carboxamide] | 30 (≈ 81.4 µM) |  | 6.00 to 6.70 |

Other lines, results leading:

| solubility [1] [µg/mL] | pIC50 (acid ceramidase; [2]) | pIC50 (acid ceramidase; pH 4.5) | Structure (SMILES) |
| --- | --- | --- | --- |
| 7 (≈ 21.6 µM) | > 6.70 |  | CCOc1nc2ncccc2n1C(=O)NCCCc1ccccc1 [Example 91a, 2-Ethoxy-N-(3-phenylpropyl)-1H-imidazo[4,5-b]pyridine-1-carboxamide] |
| 6 (≈ 17.9 µM) | > 6.70 |  | O=C(NCCc1ccccc1)n1cnc2ccc(C(F)(F)F)nc21 [Example 66a, N-Phenethyl-5-(trifluoromethyl)-3H-imidazo[4,5-b]pyridine-3-carboxamide] |
| 4.2 (≈ 14.2 µM) | > 6.70 |  | CC(C)CNC(=O)n1cnc2cc(-c3cncnc3)ccc21 [Example 16a, N-iso-Butyl-5-(pyrimidin-5-yl)-1H-benzo[d]imidazole-1-carboxamide] |
| 7.5 (≈ 19.5 µM) | > 6.70 |  | CCCCNC(=O)n1cnc2cc(N3CCC(N4CCOCC4)CC3)ccc21 [Example 101b, N-butyl-5-(4-morpholinopiperidin-1-yl)-1H-benzo[d]imidazole-1-carboxamide] |
| 40 (≈ 123 µM) | > 6.70 |  | CCCCNC(=O)n1c(OC)nc2ccc(-c3cncnc3)nc21 [Example 85a, N-Butyl-2-methoxy-5-(pyrimidin-5-yl)-3H-imidazo[4,5-b]pyridine-3-carboxamide] |
| 26.5 (≈ 81.4 µM) | > 6.70 |  | COc1cc2ncn(C(=O)NCC(C)C)c2cc1-c1cncnc1 [Example 79b, N-iso-butyl-5-methoxy-6-(pyrimidin-5-yl)-1H-benzo[d]imidazole-1-carboxamide] |
| 27 (≈ 83 µM) | 6.00 to 6.70 |  | COc1nc2cc(-c3cncnc3)ccc2n1C(=O)NCC(C)C [Example 81b, N-iso-butyl-2-methoxy-5-(pyrimidin-5-yl)-1H-benzo[d]imidazole-1-carboxamide] |
| 3 (≈ 8.01 µM) |  | 6.00 to 6.70 | COc1nc2cc(F)c(N3CCOCC3)cc2n1C(=O)NCC#CC(C)C [Example 321b, 5-fluoro-2-methoxy-N-(4-methylpent-2-yn-1-yl)-6-morpholino-1H-benzo[d]imidazole-1-carboxamide] |
| 15.6 (≈ 54.7 µM) | > 6.70 |  | CCCCNC(=O)n1cnc2cc(C(F)(F)F)ccc21 [Example 49a, N-Butyl-5-(trifluoromethyl)-1H-benzo[d]imidazole-1-carboxamide] |
| 7 (≈ 16.9 µM) | > 6.70 |  | COc1nc2cc(N3CCOCC3)c(F)cc2n1C(=O)NCCOc1ccccc1 [Example 335b, 6-fluoro-2-methoxy-5-morpholino-N-(2-phenoxyethyl)-1H-benzo[d]imidazole-1-carboxamide] |
